Reference: US4232150A, “Oligosaccharide precursors to substituted O-α-D and O-β-D-multigalactopyranosyl and glucopyranosyl 1→4 and 1→6 galactopyranosyl 1→6α-D-glucopyranoses” (American Cyanamid Company, priority 1979, dated 1980)
Where a name gives a salt, the structure may show the parent alone.

Legend:
activated human C1 = target: T1, activated human C1 (Homo sapiens, UniProt P09871); assay: Test Code 026 (C1 inhibitor); assay type: biochemical; conditions: serial twofold dilution assay; higher well number indicates higher activity
T1 construct: functional test of fluid-phase human C2 destruction in presence of C4
Source text: (§1) An active inhibitor protects C2 from C1 and C4; (ii) Test Cod3 035 (3-C9 inhibitor)--This test determines the ability of the late components of human complement (C3-C9) to lyse EAC 142 in the presence of appropriate dilutions of the test compound. An active inhibitor protects EAC 142 from lysis by human C3-C9; (iii) Test Code 036 (C-Shunt inhibitor)--In this test human erythrocytes rendered fragile are lysed in autologous serum via the shunt pathway activated by cobra venom factor in the presence of appropriate dilutions of the test compound. Inhibition of the shunt pathway results in failure of lysis; (iv) Forssman Vasculitis Test--Here, the well known complement dependent lesion, Forssman vasculitis, is produced in guinea pigs by intradermal injection of rabbit anti-Forssman antiserum. The lesion is measured in terms of diameter, edema and hemorrhage and the extent to which a combined index of these is inhibited by prior intraperitoneal injection of the test compound at 200 mg/kg is then reported, unless otherwise stated; (v) Forssman Shock Test--Lethal shock is produced in guinea pigs by an i.v. injection of anti-Forssman antiserum and the harmonic mean death time of treated guinea pigs is compared with that of simultaneous controls; (vi) Complement Level Reduction Test--In this test, the above dosed guinea pigs, or others, are bled for serum and the complement level is determined in undiluted serum by the capillary tube method of U.S. Pat. No. 3,876,376 and compared to undosed control guinea pigs; (vii) Cap 50 Test--Here, appropriate amounts of the test compound are added to a pool of guinea pig serum in vitro, after which the undiluted serum capillary tube assay referred to above is run. The concentration of compound inhibiting 50% is reported;
(§2) **Activity in wells, a serial dilution assay; higher well number indicate
(§3) higher activity. The serial dilutions are twofold

[1] = tested on: late components of human complement (C3-C9); assay: Test Code 035 (C3-C9 inhibitor; C-Late), lysis of EAC 142; assay type: cell-based; conditions: serial twofold dilution assay; higher well number indicates higher activity
Source text: as §1, §2, §3

[2] = tested on: shunt pathway activated by cobra venom factor; assay: Test Code 036 (C-Shunt inhibitor), lysis of human erythrocytes by cobra venom factor; assay type: cell-based; conditions: serial twofold dilution assay; higher well number indicates higher activity
Source text: as §1, §2, §3

complement system = conditions: cited from earlier work
[3] = tested on: hereditary angioneurotic edema; conditions: in vivo; cited from earlier work
human serum complement = conditions: in vitro and in vivo; cited from earlier work

T1 sequence (P09871 16-688): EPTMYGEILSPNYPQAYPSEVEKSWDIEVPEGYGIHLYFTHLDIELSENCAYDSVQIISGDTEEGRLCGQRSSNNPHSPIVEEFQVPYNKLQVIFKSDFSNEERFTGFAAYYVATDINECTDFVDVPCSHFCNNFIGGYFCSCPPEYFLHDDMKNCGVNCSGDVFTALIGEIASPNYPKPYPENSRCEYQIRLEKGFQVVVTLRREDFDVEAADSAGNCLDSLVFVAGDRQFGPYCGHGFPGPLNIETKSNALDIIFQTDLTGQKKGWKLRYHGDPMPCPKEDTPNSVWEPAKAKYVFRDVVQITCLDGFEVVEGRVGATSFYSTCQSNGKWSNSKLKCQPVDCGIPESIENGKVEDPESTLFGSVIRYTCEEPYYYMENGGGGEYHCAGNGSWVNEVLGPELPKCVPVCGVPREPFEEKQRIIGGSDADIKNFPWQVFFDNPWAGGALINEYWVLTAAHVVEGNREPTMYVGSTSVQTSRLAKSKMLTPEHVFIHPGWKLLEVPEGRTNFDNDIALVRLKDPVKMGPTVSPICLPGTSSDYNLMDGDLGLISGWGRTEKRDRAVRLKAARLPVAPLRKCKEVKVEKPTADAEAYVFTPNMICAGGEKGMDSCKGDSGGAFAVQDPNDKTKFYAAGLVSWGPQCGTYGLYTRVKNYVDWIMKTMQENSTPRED
T1 sequence (P00736 18-705 partner): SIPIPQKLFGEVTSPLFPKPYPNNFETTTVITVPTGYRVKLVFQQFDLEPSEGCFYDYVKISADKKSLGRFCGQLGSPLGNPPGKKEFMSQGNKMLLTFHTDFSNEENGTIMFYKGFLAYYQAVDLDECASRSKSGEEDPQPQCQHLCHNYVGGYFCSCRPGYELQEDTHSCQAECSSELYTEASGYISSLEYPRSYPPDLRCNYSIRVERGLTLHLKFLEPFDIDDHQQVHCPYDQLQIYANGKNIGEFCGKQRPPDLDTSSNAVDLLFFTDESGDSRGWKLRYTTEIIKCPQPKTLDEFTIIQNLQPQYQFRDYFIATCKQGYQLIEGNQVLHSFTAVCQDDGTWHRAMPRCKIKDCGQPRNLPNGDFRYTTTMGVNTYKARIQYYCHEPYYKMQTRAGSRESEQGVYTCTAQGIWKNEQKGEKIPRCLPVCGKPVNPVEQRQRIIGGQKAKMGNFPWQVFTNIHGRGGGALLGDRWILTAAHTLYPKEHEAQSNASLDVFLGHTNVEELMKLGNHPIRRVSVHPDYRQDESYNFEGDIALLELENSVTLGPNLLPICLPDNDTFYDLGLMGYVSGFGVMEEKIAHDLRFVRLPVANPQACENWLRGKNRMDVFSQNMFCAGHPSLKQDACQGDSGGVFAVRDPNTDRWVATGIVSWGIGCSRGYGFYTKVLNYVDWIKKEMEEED
T1 sequence (P02745 23-245 partner): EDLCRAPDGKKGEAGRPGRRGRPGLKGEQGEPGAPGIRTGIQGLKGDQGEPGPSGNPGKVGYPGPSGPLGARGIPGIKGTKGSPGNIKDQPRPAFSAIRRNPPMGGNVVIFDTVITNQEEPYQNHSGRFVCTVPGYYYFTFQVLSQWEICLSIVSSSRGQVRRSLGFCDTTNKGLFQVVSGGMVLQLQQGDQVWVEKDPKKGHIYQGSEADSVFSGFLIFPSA
T1 sequence (P02746 28-253 partner): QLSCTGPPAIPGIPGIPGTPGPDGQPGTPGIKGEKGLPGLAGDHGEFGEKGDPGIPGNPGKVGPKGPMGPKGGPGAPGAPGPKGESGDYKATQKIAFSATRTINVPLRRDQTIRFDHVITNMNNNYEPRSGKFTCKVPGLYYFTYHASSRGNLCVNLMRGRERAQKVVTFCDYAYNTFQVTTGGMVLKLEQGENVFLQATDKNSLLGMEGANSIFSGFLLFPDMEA
T1 sequence (P02747 29-245 partner): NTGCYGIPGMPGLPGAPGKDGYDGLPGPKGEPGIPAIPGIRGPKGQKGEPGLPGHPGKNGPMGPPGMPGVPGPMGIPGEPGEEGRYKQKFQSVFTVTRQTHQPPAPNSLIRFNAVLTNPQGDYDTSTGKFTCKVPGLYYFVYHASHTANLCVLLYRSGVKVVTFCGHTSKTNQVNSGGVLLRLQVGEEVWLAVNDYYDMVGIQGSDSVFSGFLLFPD

Molecule	C1 026* Wells (activated human C1)	C-Late 035* Wells [1]	Shunt Inhibition 036* Wells [2]	other results
O=S(=O)(O)OC[C@H]1O[C@@H](OC[C@H]2O[C@H](OC[C@H]3OC(OS(=O)(=O)O)[C@H](OS(=O)(=O)O)[C@@H](OS(=O)(=O)O)[C@@H]3OS(=O)(=O)O)[C@H](OS(=O)(=O)O)[C@@H](OS(=O)(=O)O)[C@H]2OS(=O)(=O)O)[C@H](OS(=O)(=O)O)[C@@H](OS(=O)(=O)O)[C@@H]1O[C@H]1O[C@H](COS(=O)(=O)O)[C@@H](O[C@H]2O[C@H](COS(=O)(=O)O)[C@@H](O[C@H]3O[C@H](COS(=O)(=O)O)[C@@H](O[C@H]4O[C@H](COS(=O)(=O)O)[C@@H](O[C@H]5O[C@H](COS(=O)(=O)O)[C@@H](O[C@H]6O[C@H](COS(=O)(=O)O)[C@@H](OS(=O)(=O)O)[C@H](OS(=O)(=O)O)[C@H]6OS(=O)(=O)O)[C@H](OS(=O)(=O)O)[C@H]5OS(=O)(=O)O)[C@H](OS(=O)(=O)O)[C@H]4OS(=O)(=O)O)[C@H](OS(=O)(=O)O)[C@H]3OS(=O)(=O)O)[C@H](OS(=O)(=O)O)[C@H]2OS(=O)(=O)O)[C@H](OS(=O)(=O)O)[C@H]1OS(=O)(=O)O (stereo partly drawn) [(glc →1α,4)6 glc →1β,6 gal →1α,6 nonacosakis (H-sulfate), no] [(Glc 1α,4)6 glc 1β,6 gal 1α,6 glc nonacosakis (H-sulfate) nonacosasodium salt]	+9 Wells	+3 Wells	+5 Wells	
Nc1ccc2cc(S(=O)(=O)[O-])cc(O)c2c1N=Nc1ccc(NC(=O)Nc2ccc(N=Nc3c(N)ccc4cc(S(=O)(=O)[O-])cc(O)c34)c(S(=O)(=O)[O-])c2)cc1S(=O)(=O)[O-].[Na+].[Na+].[Na+].[Na+] [chlorazol fast pink, 3,3'-ureylenebis[6-(2-amino-8-hydroxy-6-sulfo-1-naphthylazo)benzenesulfonic acid], tetrasodium salt]				anticomplementary effect (complement system): anticomplementary effect
NCCCCCC(=O)O [epsilon-aminocaproic acid]				success in the treatment of hereditary angioneurotic edema [3]: used with success in the treatment of hereditary angioneurotic edema
O=S(=O)(O)OC[C@H]1O[C@H](OC[C@H]2O[C@@H](OC[C@H]3O[C@H](OC[C@H]4O[C@H](OS(=O)(=O)O)[C@H](OS(=O)(=O)O)[C@@H](OS(=O)(=O)O)[C@@H]4OS(=O)(=O)O)[C@H](OS(=O)(=O)O)[C@@H](OS(=O)(=O)O)[C@H]3OS(=O)(=O)O)[C@H](OS(=O)(=O)O)[C@@H](OS(=O)(=O)O)[C@@H]2OS(=O)(=O)O)[C@H](OS(=O)(=O)O)[C@@H](OS(=O)(=O)O)[C@H]1OS(=O)(=O)O [gal →1α,6 glc →1β,6 gal →1α,6 tetradecakis (H-sulfate), tetr] [Gal 1α,6 glc 1β,6 gal 1α,6 glc tetradecakis (H-sulfate), tetradecasalt with trimethylamine]	+9 Wells	+1 Wells	+5 Wells	
O=S(=O)(O)OC[C@H]1O[C@H](OC[C@H]2O[C@@H](OC[C@H]3O[C@H](OC[C@H]4O[C@H](OS(=O)(=O)O)[C@H](OS(=O)(=O)O)[C@@H](OS(=O)(=O)O)[C@@H]4OS(=O)(=O)O)[C@H](OS(=O)(=O)O)[C@@H](OS(=O)(=O)O)[C@H]3OS(=O)(=O)O)[C@H](OS(=O)(=O)O)[C@@H](OS(=O)(=O)O)[C@@H]2OS(=O)(=O)O)[C@H](OS(=O)(=O)O)[C@@H](OS(=O)(=O)O)[C@H]1OS(=O)(=O)O [gal →1α,6 glc → 1β,6 gal →1α,6 glc tetradecakis (H-sulfate),] [Gal 1α,6 glc 1β,6 gal 1α,6 glc tetradecakis (H-sulfate), tetradecasodium salt]	+9 Wells	+1 Wells	+6 Wells	
NC[C@H]1CC[C@H](C(=O)O)CC1 [tranexamic acid]				success in the treatment of hereditary angioneurotic edema [3]: used with success in the treatment of hereditary angioneurotic edema
heparin				anticomplementary effect (complement system): anticomplementary effect
pentosan-polysulfoester				anticomplementary activity on human serum, as judged by the reduction in total hemolytic complement activity (human serum complement): anticomplementary activity on human serum, both in vitro and in vivo
